Consider 34 molecules from ChEMBL document CHEMBL5154760, “Metabolism guided optimization of peptidomimetics as non-covalent proteasome inhibitors for cancer treatment” (Eur J Med Chem, 2022).

Data set [1] concerns the target 20S proteasome. In words: Inhibition of chymotrypsin-like activity of human 20S proteasome using Suc-Leu Leu-Val-Tyr-AMC as substrate preincubated for 15 mins followed by substrate addition measured by fluorescence assay. It is filed as protein-complex assay.
Data set [2] is described as follows: In vivo inhibition of chymotrypsin-like activity of 20S proteasome in ICR mouse at 5 mg/kg, iv. Format: functional.
The test system of data set [3] is MM1.S. In words: Antiproliferative activity against human MM1.S cells after 72 hrs by MTS assay. It is filed as functional, cell-based.
For data set [4], the target named is 20S proteasome (Homo sapiens) (UniProt P49721+P20618+P28074+P28062+P28065+P28072+P25786+P25787+P25788+P25789+P28066+P60900+O14818+Q8TAA3+P40306+A5LHX3+P49720+P28070+Q99436). Put plainly: Inhibition of chymotrypsin-like activity of 20S proteasome in human MM1.S cells assessed as accumulation of polyubiquitinated proteins at 10 to 1000 nM and measured by Western blot analysis. It is filed as cell-based. The conditions noted are these: dose 10-1000 nM.

Data set [5] has as its system MV4-11. Put plainly: Antiproliferative activity against human MV4-11 cells after 72 hrs by MTS assay. Format: functional, cell-based. As to conditions: MV4-11, 72 h. (In general: Tetrazolium dyes change colour on reduction, which living cells bring about.)
Data set [6] can be described thus: Stability of the compound in mouse blood assessed as half-life measured by LC-MS/MS analysis. It is filed as ADME, tissue-based.
The test system of data set [7] is RPMI-8226. In words: Antiproliferative activity against human RPMI-8226 cells after 72 hrs by MTS assay. It is filed as functional, cell-based. As to conditions: RPMI-8226, 72 h.

What is called IC50 is the concentration that inhibits the measured activity by half. A low value points to greater potency. Usually inhibition in vivo stands for the change of the read-out against control, counted positive when it falls. Read a high inhibition in vivo as a response far below the control. In general, half-life refers to the time needed for the level to fall by half in the phase considered.

Each structure is given as a SMILES string. Activity calls are given as the source filed them.

`CN(C(=O)C1CCN(C(=O)N[C@@H](CC(=O)NCC(C)(C)C)C(=O)N[C@@H](CCc2ccccc2)C(=O)N2CCc3ccccc3C2)CC1)c1cccnc1` gave a 50% inhibitory concentration (IC50) in data set [1] of over 10 µM.
`C[C@H](c1ccccc1)N(C)C(=O)[C@H](CCc1ccccc1)NC(=O)[C@H](CC(=O)NCC(C)(C)C)NC(=O)N1CCC(C(=O)N(C)c2cccnc2)CC1` gave an IC50 in data set [1] of over 10 µM.
Take `CC(C)(C)CNC(=O)C[C@H](NC(=O)N1CCC(C(=O)Nc2cccnc2)CC1)C(=O)N[C@@H](CCc1ccccc1)C(=O)N1CCc2ccccc2C1`: the IC50 in data set [1] was 1.59 µM.
Turning to `CN(C(=O)C1CCN(C(=O)N[C@@H](CC(=O)NCC(C)(C)C)C(=O)N[C@@H](CCc2ccccc2)C(=O)N[C@@H]2CCCc3ccccc32)CC1)c1nccs1`, in data set [2], the inhibition in vivo at 5 mg/kg was 50%. Also, the half-inhibitory concentration (IC50) is 0.00343 µM in data set [1], 0.00836 µM in data set [3], 0.00157 µM in data set [5] and 0.0121 µM in data set [7]. Besides, the inhibition entry in data set [4] was “Active”. Moreover, the half-life in data set [6] is 1.4 h.
`CN(Cc1ccccc1Cl)C(=O)[C@H](CCc1ccccc1)NC(=O)[C@H](CC(=O)NCC(C)(C)C)NC(=O)N1CCC(C(=O)Nc2cccnc2)CC1`: in data set [1], inhibition was half-maximal at 1.74 µM (IC50).
`COc1ccc(N(C)C(=O)C2CCN(C(=O)N[C@@H](CC(=O)NCC(C)(C)C)C(=O)N[C@@H](CCc3ccccc3)C(=O)N[C@@H]3CCCc4ccccc43)CC2)cc1`: half-maximal inhibition in data set [1] (IC50) was put at 0.025 µM.
In turn, `CN(Cc1ccccc1Cl)C(=O)[C@H](CCc1ccccc1)NC(=O)[C@H](CC(=O)NCC(C)(C)C)NC(=O)N1CCC(C(=O)N(C)c2cccnc2)CC1` returned an IC50 in data set [1] of over 10 µM.
Regarding `CN(C(=O)C1CCN(C(=O)N[C@@H](CC(=O)NCC(C)(C)C)C(=O)N[C@@H](CCc2ccccc2)C(=O)N[C@@H]2CCCc3ccccc32)CC1)c1ccc(Cl)cc1`, the IC50 in data set [1] was found to be 0.00695 µM; in data set [3], 0.0269 µM; in data set [5], 0.00406 µM; in data set [7], 0.0208 µM.
As for `CN(C(=O)C1CCN(C(=O)N[C@@H](CC(=O)NCC(C)(C)C)C(=O)N[C@@H](CCc2ccccc2)C(=O)N[C@H]2CCCc3ccccc32)CC1)c1cccnc1`, the half-inhibitory concentration (IC50) in data set [1] is over 10 µM.
On to `CN(C(=O)C1CCN(C(=O)N[C@@H](CC(=O)NCC(C)(C)C)C(=O)N[C@@H](CCc2ccccc2)C(=O)N[C@@H]2CCCc3ccccc32)CC1)c1cccnc1`, for which the concentration for half-maximal inhibition (IC50) in data set [1] is 0.00859 µM; in data set [3], 0.0542 µM; in data set [5], 0.012 µM; in data set [7], 0.0817 µM.
For `CC(C)(C)CNC(=O)C[C@H](NC(=O)N1CCC(C(=O)Nc2cccnc2)CC1)C(=O)N[C@@H](CCc1ccccc1)C(=O)N[C@@H]1CCCc2ccccc21`, in that order: 0.00403 µM, 0.0351 µM, 0.00683 µM and 0.0407 µM.
In the case of `CN(C(=O)C1CCN(C(=O)N[C@@H](CC(=O)NCC(C)(C)C)C(=O)N[C@@H](CCc2ccccc2)C(=O)N[C@@H]2CCCc3ccccc32)CC1)c1ccccn1`, the IC50 in data set [1] was determined as 0.00892 µM; in data set [3] it was 0.0206 µM; in data set [5], 0.00485 µM; in data set [7], 0.0337 µM.
In turn, `CC(C)(C)CNC(=O)C[C@H](NC(=O)N1CCC(C(=O)Nc2cccnc2)CC1)C(=O)N[C@@H](CCc1ccccc1)C(=O)N[C@H]1CCCc2ccccc21` came in with a half-inhibitory concentration (IC50) in data set [1] of 4.48 µM.
Still for that read-out and setting: in the case of `CC(C)(C)CNC(=O)C[C@H](NC(=O)N1CCC(NC(=O)Nc2ccc(Cl)cc2)CC1)C(=O)N[C@@H](CCc1ccccc1)C(=O)N[C@@H]1CCCc2ccccc21` it was 0.0412 µM.
On to `CCN(C(=O)C1CCN(C(=O)N[C@@H](CC(=O)NCC(C)(C)C)C(=O)N[C@@H](CCc2ccccc2)C(=O)N[C@@H]2CCCc3ccccc32)CC1)c1ccccc1`, for which at 5 mg/kg the inhibition in vivo in data set [2] was 50%. Moreover, the IC50 in data set [1] was 0.00839 µM; in data set [3], 0.00907 µM; in data set [5], 0.00246 µM; in data set [7] it was 0.0153 µM. The inhibition entry in data set [4] was “Active”. Moreover, in data set [6], the half-life was found to be 5.49 h.
For `CN(C(=O)C1CCN(C(=O)N[C@@H](CC(=O)NCC(C)(C)C)C(=O)N[C@@H](CCc2ccccc2)C(=O)N[C@@H]2CCCc3ccccc32)CC1)c1ccncc1`, the IC50 is 0.00926 µM in data set [1], 0.084 µM in data set [3], 0.0517 µM in data set [5] and over 0.1 µM in data set [7].
For `CC(C)(C)CNC(=O)C[C@H](NC(=O)N1CCC(C(=O)N2CCc3ccccc32)CC1)C(=O)N[C@@H](CCc1ccccc1)C(=O)N[C@@H]1CCCc2ccccc21`, in that order: 0.00724 µM, 0.0169 µM, 0.0046 µM and 0.0199 µM.
For `CN(C(=O)C1CCN(C(=O)N[C@@H](CC(=O)NCC(C)(C)C)C(=O)N[C@@H](CCc2ccccc2)C(=O)N[C@@H]2CCCc3ccccc32)CC1)c1ccc(F)cc1`, the IC50 in data set [1] turned out to be 0.00938 µM; in data set [3], 0.0177 µM; in data set [5] it was 0.00487 µM; in data set [7], 0.0262 µM.
In data set [1], `C[C@@H](c1ccccc1)N(C)C(=O)[C@H](CCc1ccccc1)NC(=O)[C@H](CC(=O)NCC(C)(C)C)NC(=O)N1CCC(C(=O)Nc2cccnc2)CC1` registered an IC50 of over 10 µM.
The same measure, in the same setting: in the case of `CN(C(=O)C1CCN(C(=O)N[C@@H](CC(=O)NCC(C)(C)C)C(=O)N[C@@H](CCc2ccccc2)C(=O)N[C@@H]2CCCc3ccccc32)CC1)c1cccc(Cl)c1` it was 0.0226 µM.
As to `CC(C)(C)CNC(=O)C[C@H](NC(=O)N1CCC(C(=O)Nc2nccs2)CC1)C(=O)N[C@@H](CCc1ccccc1)C(=O)NCc1ccccc1Cl`, in data set [1], 0.00092 µM corresponded to half-maximal inhibition (IC50). For the same molecule, the half-life in data set [6] turned out to be 0.613 h.
As for `CC(C)C[C@H](NC(=O)[C@H](CCc1ccccc1)NC(=O)CN1CCOCC1)C(=O)N[C@@H](Cc1ccccc1)C(=O)N[C@@H](CC(C)C)C(=O)[C@]1(C)CO1`, the IC50 was 0.00915 µM in data set [3], 0.000983 µM in data set [5] and 0.00635 µM in data set [7].
On to `C[C@@H](c1ccccc1)N(C)C(=O)[C@H](CCc1ccccc1)NC(=O)[C@H](CC(=O)NCC(C)(C)C)NC(=O)N1CCC(C(=O)N(C)c2cccnc2)CC1`, for which, in data set [1], the IC50 is over 10 µM.
Regarding `CC(C)(C)CNC(=O)C[C@H](NC(=O)N1CCC(C(=O)Nc2cnccn2)CC1)C(=O)N[C@@H](CCc1ccccc1)C(=O)N1CCc2ccccc2C1`, in data set [1], the IC50 was over 10 µM.
On to `CN(C(=O)c1cccnc1)C1CCN(C(=O)N[C@@H](CC(=O)NCC(C)(C)C)C(=O)N[C@@H](CCc2ccccc2)C(=O)N[C@@H]2CCCc3ccccc32)CC1`, for which the IC50 stood at 0.00515 µM in data set [1], 0.0335 µM in data set [3], 0.00765 µM in data set [5] and 0.0604 µM in data set [7].
`C[C@H](NC(=O)[C@H](CCc1ccccc1)NC(=O)[C@H](CC(=O)NCC(C)(C)C)NC(=O)N1CCC(C(=O)N(C)c2cccnc2)CC1)c1ccccc1`: the IC50 in data set [1] was over 10 µM.
On to `CN(C(=O)C1CCN(C(=O)N[C@@H](CC(=O)NCC(C)(C)C)C(=O)N[C@@H](CCc2ccccc2)C(=O)N[C@@H]2CCCc3ccccc32)CC1)c1ccccc1`, for which the IC50 in data set [1] is 0.00931 µM; in data set [3], 0.00882 µM; in data set [5], 0.00274 µM; in data set [7] it was 0.0207 µM. Also, the inhibition result in data set [4] was “Active”. Further, in data set [6], the half-life amounted to 2.46 h.
In data set [1], `C[C@H](NC(=O)[C@H](CCc1ccccc1)NC(=O)[C@H](CC(=O)NCC(C)(C)C)NC(=O)N1CCC(C(=O)Nc2cccnc2)CC1)c1ccccc1` had an IC50 of over 10 µM.
With `C[C@@H](NC(=O)[C@H](CCc1ccccc1)NC(=O)[C@H](CC(=O)NCC(C)(C)C)NC(=O)N1CCC(C(=O)N(C)c2cccnc2)CC1)c1ccccc1`, in data set [1], the IC50 turned out to be 0.0998 µM.
Turning to `C[C@@H](NC(=O)[C@H](CCc1ccccc1)NC(=O)[C@H](CC(=O)NCC(C)(C)C)NC(=O)N1CCC(C(=O)Nc2cccnc2)CC1)c1ccccc1`, the IC50 in data set [1] is 0.0203 µM.
Still for that read-out and setting: with `CC(C)(C)CNC(=O)C[C@H](NC(=O)N1CCN(C(=O)Nc2ccc(Cl)cc2)CC1)C(=O)N[C@@H](CCc1ccccc1)C(=O)N[C@@H]1CCCc2ccccc21` the figure was 0.0237 µM; with `CN(C(=O)C1CCN(C(=O)N[C@@H](CC(=O)NCC(C)(C)C)C(=O)N[C@@H](CCc2ccccc2)C(=O)N[C@@H]2CCCc3ccccc32)CC1)c1ccccc1Cl`, 0.0216 µM.
Still for that read-out and setting: in the case of `CC(C)(C)CNC(=O)C[C@H](NC(=O)N1CCN(C(=O)c2cccnc2)CC1)C(=O)N[C@@H](CCc1ccccc1)C(=O)N[C@@H]1CCCc2ccccc21` it was 0.025 µM.
In the case of `CC(C)(C)CNC(=O)C[C@H](NC(=O)N1CCC(C(=O)N2CCCc3ccccc32)CC1)C(=O)N[C@@H](CCc1ccccc1)C(=O)N[C@@H]1CCCc2ccccc21`, the IC50 in data set [1] came to 0.00809 µM; in data set [3] it was 0.0124 µM; in data set [5], 0.00493 µM; in data set [7], 0.024 µM.
